Reference: patent publication US20160030407A1, “Method of Treating Inflammatory Lung Disease” (priority 2010, published 2016)
“And” between values parts separate entries of the source, which are not always exact repeats. Equal entries are not always repeated. “Also recorded” adds a separate entry of the source.

What was measured:
[1] = Single i.v. dose toxicity: hematology; format: in vivo, Sprague-Dawley rats
Text: On day 15, urine was collected on all surviving animals for urinalysis. The animals were euthanized and bled via cardiac puncture. Blood was collected for hematology, clinical chemistry, and coagulation analysis. Tissues were collected, weighed, and stored in 10% neutral-buffered formalin for possible future analysis.

[2] = Single i.v. dose toxicity: body weights and food consumption; format: in vivo, Sprague-Dawley rats; details: for Mean weight increase by day 14: single i.v. 0.1 mg/kg
Procedure: Body weight and food consumption was measured daily for 14 days. On day 15, urine was collected on all surviving animals. The animals were euthanized and bled via cardiac puncture, and blood was collected for analysis. Tissues were collected, weighed, evaluated for gross abnormalities, and stored in 10% neutral-buffered formalin.
All animals were observed daily.

[3] = 0.1 mg/kg, gender F, group mean
[4] = 0.1 mg/kg, gender M, group mean
[5] = 0.75 mg/kg, gender F, group mean
[6] = 0.75 mg/kg, gender M, group mean
[7] = anatabine 0.1 mg/kg, female rats, individual animals
[8] = anatabine 0.1 mg/kg, male rats, individual animals
[9] = anatabine 0.75 mg/kg, female rats, individual animals
[10] = anatabine 0.75 mg/kg, male rats, individual animals
[11] = Anatabine 0.1 mg/kg, F, individual rats
[12] = Anatabine 0.1 mg/kg, M, individual rats
[13] = Anatabine 0.75 mg/kg, F, individual rats
[14] = Anatabine 0.75 mg/kg, M, individual rats

C1=CCC(c2cccnc2)NC1 (racemic) [Anatabine, 1,2,3,6-tetrahydro-[2,3′]bipyridinyl]
BASOPHIL [1, 3]: 0.0%
EOSINOPHIL [1, 3]: 0.0%
MCV [1, 3]: 60.0 fL
MONOCYTE [1, 3]: 1.8%
NEUTROPHIL SEG [1, 3]: 8.0%
PLATELET COUNT [1, 3]: 997300 µL⁻¹
RBC [1, 3]: 7.8e+06 µL⁻¹
RETICULOCYTE COUNT [1, 3]: 4.5%
WBC [1, 3]: 9300 µL⁻¹
BASOPHIL [1, 4]: 0.0%
EOSINOPHIL [1, 4]: 0.2%
MONOCYTE [1, 4]: 2.0%
NEUTROPHIL SEG [1, 4]: 8.6%
PLATELET COUNT [1, 4]: 1.2486e+06 µL⁻¹
RBC [1, 4]: 7.4e+06 µL⁻¹
RETICULOCYTE COUNT [1, 4]: 5.5%
WBC [1, 4]: 15600 µL⁻¹
BASOPHIL [1, 5]: 0.0%
EOSINOPHIL [1, 5]: 0.0%
MONOCYTE [1, 5]: 0.8%
NEUTROPHIL SEG [1, 5]: 8.6%
PLATELET COUNT [1, 5]: 1.2696e+06 µL⁻¹
RBC [1, 5]: 7.5e+06 µL⁻¹
RETICULOCYTE COUNT [1, 5]: 3.3%
WBC [1, 5]: 10300 µL⁻¹
BASOPHIL [1, 6]: 0.0%
EOSINOPHIL [1, 6]: 0.0%
MCHC [1, 6]: 34.0%
MONOCYTE [1, 6]: 1.4%
NEUTROPHIL SEG [1, 6]: 9.8%
PLATELET COUNT [1, 6]: 1.3258e+06 µL⁻¹
RBC [1, 6]: 7.5e+06 µL⁻¹
RETICULOCYTE COUNT [1, 6]: 4.4%
WBC [1, 6]: 12100 µL⁻¹
ANISOCYTOSIS [1, 7]: SLIGHT
BASOPHIL [1, 7]: 0%
EOSINOPHIL [1, 7]: 0%
HCT [1, 7]: 44%
HGB [1, 7]: 17 gm/dL
LYMPHOCYTE [1, 7]: 89% and 90% and 91% and 93% and 88%
MCHC [1, 7]: 34%
MONOCYTE [1, 7]: 3% and 2% (2×) and 1% (2×)
NEUTROPHILSEG [1, 7]: 8% (2×) and 7% and 6% and 11%
PLATELETEST [1, 7]: ADEQUATE; also recorded: DECREASED
POLYCHROMASIA [1, 7]: SLIGHT
RETICULOCYTE COUNT [1, 7]: 4.8% and 5.4% and 6.1% and 3.7% and 2.4%
ANISOCYTOSIS [1, 8]: SLIGHT
BASOPHIL [1, 8]: 0%
EOSINOPHIL [1, 8]: 0% (4×) and 1%
HCT [1, 8]: 45%
LYMPHOCYTE [1, 8]: 87% (2×) and 94% and 90% and 88%
MCHC [1, 8]: 34% (2×) and 32%
MONOCYTE [1, 8]: 1% (2×) and 3% (2×) and 2%
NEUTROPHILSEG [1, 8]: 12% and 3% and 7% and 10% and 11%
PLATELETEST [1, 8]: ADEQUATE; also recorded: INCREASED
POLYCHROMASIA [1, 8]: SLIGHT
RETICULOCYTE COUNT [1, 8]: 6.1% and 5.4% and 4.7% and 5.6% and 5.9%
ANISOCYTOSIS [1, 9]: SLIGHT
BASOPHIL [1, 9]: 0%
EOSINOPHIL [1, 9]: 0%
HGB [1, 9]: 15 gm/dL
LYMPHOCYTE [1, 9]: 93% (2×) and 87% and 91% and 89%
MONOCYTE [1, 9]: 1% (2×) and 0% (2×) and 2%
NEUTROPHILSEG [1, 9]: 6% and 12% and 9% (2×) and 7%
PLATELETEST [1, 9]: ADEQUATE; also recorded: INCREASED
POLYCHROMASIA [1, 9]: SLIGHT
RETICULOCYTE COUNT [1, 9]: 3.4% and 1.8% and 3.2% and 3.8% and 4.1%
ANISOCYTOSIS [1, 10]: SLIGHT
BASOPHIL [1, 10]: 0%
EOSINOPHIL [1, 10]: 0%
LYMPHOCYTE [1, 10]: 86% and 89% (2×) and 92% and 88%
MCH [1, 10]: 21 UUG and 22 UUG
MONOCYTE [1, 10]: 1% (3×) and 2% (2×)
NEUTROPHILSEG [1, 10]: 13% and 10% (3×) and 6%
PLATELETEST [1, 10]: ADEQUATE; also recorded: DECREASED
POLYCHROMASIA [1, 10]: SLIGHT
RETICULOCYTE COUNT [1, 10]: 3.6% and 4.2% and 4.1% and 4.7% and 5.3%
mean corpuscular hemoglobin concentration (MCHC) vs control ([1]; female rats, 0.1 mg/kg anatabine i.v.): small but statistically significant decrease
mean corpuscular volume (MCV) and mean corpuscular hemoglobin (MCH) vs control ([1]; female rats, […] anatabine, 0.75 mg/kg nicotine i.v.): small, but statistically significant decreases
day 7 B.W. [2, 11]: 222.0 g
day 12 B.W. [2, 11]: 240.0 g
day 3 B.W. [2, 12]: 270.0 g
day 4 B.W. [2, 12]: 270.0 g
day 8 B.W. [2, 12]: 310.0 g
day 9 B.W. [2, 12]: 310.0 g
day 12 B.W. [2, 12]: 320.0 g
day 13 B.W. [2, 12]: 360 g
day 2 B.W. [2, 13]: 210.0 g
day 4 B.W. [2, 13]: 230.0 g and 220.0 g
day 8 B.W. [2, 13]: 220.0 g
day 2 B.W. [2, 14]: 240.0 g
day 8 B.W. [2, 14]: 300.0 g
day 13 B.W. [2, 14]: 330 g
Mean weight increase by day 14 ([2]; female rats): 39.0 g
Mean weight increase by day 14 ([2]; male rats): 132.5 g
